Assay results: US11001564B2, “Substituted chromane-8-carboxamide compounds and analogues thereof, and methods using same” (priority 2016, dated 2021)
Where two headings read alike, the source gives them in different places.

Tested on: HBV rcDNA in HepDE19 cells
Test: HepDE19 assay with bDNA quantitation of HBV rcDNA
Assay type: cell-based, hepatitis B virus (HBV)
Method: HepDE19 Assay with bDNA Quantitation of HBV rcDNA:
HepDE19 cell culture system is a HepG2 (human hepatocarcinoma) derived cell line that supports HBV DNA replication and cccDNA formation in a tetracycline (Tet)-regulated manner and produces HBV rcDNA and a detectable reporter molecule dependent on the production and maintenance of cccDNA (Guo, et al., 2007, J. Virol. 81:12472-12484).
HepDE19 (50,000 cells/well) were plated in 96 well collagen-coated tissue-culture treated microtiter plates in DMEM/F12 medium supplemented with 10% fetal bovine serum, 1% penicillin-streptomycin and 1 μg/mL tetracycline and incubated in a humidified incubator at 37° C. and 5% CO2 overnight. Next day, the cells were switched to fresh medium without tetracycline and incubated for 4 hours at 37° C. and 5% CO2. The cells were treated with fresh Tet-free medium with compounds at concentrations starting at 25 μM and a serial, ½ log, 8-point, titration series in duplicate. The final DMSO concentration in the assay was 0.5%. The plates were incubated for 7 days in a humidified incubator at 37° C. and 5% CO2. Following a 7 day-incubation, the level of rcDNA present in the inhibitor-treated wells was measured using a Quantigene 2.0 bDNA assay kit (Affymetrix, Santa Clara, Calif.) with HBV specific custom probe set and manufacturers instructions. Concurrently, the effect of compounds on cell viability was assessed using replicate plates, plated at a density of 5,000 cells/well and incubated for 4 days, to determine the ATP content as a measure of cell viability using the cell-titer glo reagent (CTG; Promega Corporation, Madison, Wis.) as per manufacturer's instructions. The plates were read using a Victor luminescence plate reader (PerkinElmer Model 1420 Multilabel counter) and the relative luminescence units (RLU) data generated from each well was calculated as % inhibition of the untreated control wells and analyzed using XL-Fit module in Microsoft Excel to determine EC50 and EC90 (bDNA) and CC50 (CTG) values using a 4-parameter curve fitting algorithm.
Representative compounds of the invention were tested for their ability to inhibit formation of relaxed circular DNA (rcDNA) in a HepDE19 assay, as described elsewhere herein.

[1] = HepDE19 cells, 7 day incubation, rcDNA by Quantigene 2.0 bDNA assay, read-out: DE-19 bDNA EC50
[2] = read-out: DE-19 bDNA EC50, HepDE19 cells, 7 day incubation, rcDNA by Quantigene 2.0 bDNA assay
[3] = Hepatitis B virus, HepDE19, 168 h, HepDE19 cells, 7 day incubation, rcDNA by Quantigene 2.0 bDNA assay, read-out: DE-19 bDNA EC50
[4] = Hepatitis B virus, HepDE19, 168 h, read-out: DE-19 bDNA EC50, HepDE19 cells, 7 day incubation, rcDNA by Quantigene 2.0 bDNA assay

Row | Structure (SMILES) | EC50 [1] [µM] | EC50 [3] [µM] | further results
1 | COC1CCOc2c(C(=O)Nc3ccc(F)c(F)c3)cccc21 (single isomer, unassigned) [Compound 6, N-(3,4-difluorophenyl)-4-methoxychromane-8-carboxamide] | 4.3 | – | –
2 | COC1CCOc2c(C(=O)Nc3ccc(F)c(F)c3)cccc21 (single isomer, unassigned) [Compound 7, N-(3,4-difluorophenyl)-4-methoxychromane-8-carboxamide] | 1.8 | – | –
3 | O=C(N[C@H]1CCOc2c(C(=O)Nc3ccc(F)c(F)c3)cccc21)OC1CCOC1 (single isomer, unassigned) [Compound 25, Tetrahydrofuran-3-yl-(8-((3,4-difluorophenyl)carbamoyl)chroman-4-yl)carbamate] | – | – | EC50 [2]: 23 µM
4 | O=C(N[C@H]1CCOc2c(C(=O)Nc3ccc(F)c(F)c3)cccc21)OC1CCOC1 (single isomer, unassigned) [Compound 26, Tetrahydrofuran-3-yl-(8-((3,4-difluorophenyl)carbamoyl)chroman-4-yl)carbamate] | – | – | EC50 [2]: 7.4 µM
5 | O=C(Nc1ccc(F)c(F)c1)c1cccc2c1OCCC2c1ccncc1 (single isomer, unassigned) [Compound 69, N-(3,4-Difluorophenyl)-4-(pyridin-4-yl)chromane-8-carboxamide] | – | 12 | –
6 | O=C(Nc1ccc(F)c(F)c1)c1cccc2c1OCCC2c1ccncc1 (single isomer, unassigned) [Compound 70, N-(3,4-Difluorophenyl)-4-(pyridin-4-yl)chromane-8-carboxamide] | 23 | – | –
7 | O=C(N[C@H]1CCOc2c(C(=O)Nc3ccc(F)c(F)c3)cccc21)OCC1CCCCN1 (single isomer, unassigned) [Compound 85] | – | 19 | –
8 | O=C(N[C@H]1CCOc2c(C(=O)Nc3ccc(F)c(F)c3)cccc21)OCC1CCCCN1 (single isomer, unassigned) [Compound 86] | 15 | – | –
9 | O=C(N[C@H]1CCOc2c(C(=O)Nc3ccc(F)c(F)c3)cccc21)OCC1CCCNC1 (single isomer, unassigned) [Compound 87] | – | 16 | –
10 | O=C(N[C@H]1CCOc2c(C(=O)Nc3ccc(F)c(F)c3)cccc21)OCC1CCCNC1 (single isomer, unassigned) [Compound 94] | 22 | – | –
11 | CN1CCCC(COC(=O)N[C@H]2CCOc3c(C(=O)Nc4ccc(F)c(F)c4)cccc32)C1 (single isomer, unassigned) [Compound 98] | – | 23 | –
12 | CN1CCCC(COC(=O)N[C@H]2CCOc3c(C(=O)Nc4ccc(F)c(F)c4)cccc32)C1 (single isomer, unassigned) [Compound 99] | 25 | – | –
13 | O=C(N[C@H]1CCOc2c(C(=O)Nc3ccc(F)c(F)c3)cccc21)OCC1CCNC1 (single isomer, unassigned) [Compound 108] | – | 21 | –
14 | O=C(N[C@H]1CCOc2c(C(=O)Nc3ccc(F)c(F)c3)cccc21)OCC1CCNC1 (single isomer, unassigned) [Compound 109] | 21 | – | –
15 | CNC(=O)CC1CCOc2c(C(=O)Nc3ccc(F)c(F)c3)cccc21 (single isomer, unassigned) [Compound 131, N-(3,4-difluorophenyl)-4-(2-(methylamino)-2-oxoethyl) chromane-8-carboxamide] | – | 20 | –
16 | CNC(=O)CC1CCOc2c(C(=O)Nc3ccc(F)c(F)c3)cccc21 (single isomer, unassigned) [Compound 132, N-(3,4-difluorophenyl)-4-(2-(methylamino)-2-oxoethyl) chromane-8-carboxamide] | 21 | – | –
17 | CC(=O)N1CCCC1COC(=O)N[C@H]1CCOc2c(C(=O)Nc3ccc(F)c(F)c3)cccc21 (single isomer, unassigned) [Compound 139] | – | – | EC50 [4]: 4.6 µM
18 | CC(=O)N1CCC(COC(=O)N[C@H]2CCOc3c(C(=O)Nc4ccc(F)c(F)c4)cccc32)C1 (single isomer, unassigned) [Compound 144] | – | – | EC50 [4]: 5.4 µM

Row | Structure (SMILES) | EC50 [1] [µM] | EC50 [3] [µM] | further results
19 | CC(=O)N1CCC(COC(=O)N[C@H]2CCOc3c(C(=O)Nc4ccc(F)c(F)c4)cccc32)C1 (single isomer, unassigned) [Compound 145] | – | – | EC50 [2]: 7 µM
20 | COC(=O)NC1CCN(C)c2c(C(=O)Nc3ccc(F)c(F)c3)cccc21 (single isomer, unassigned) [Compound 177, Methyl (8-((3,4-difluorophenyl)carbamoyl)-1-methyl-1,2,3,4-tetrahydroquinolin-4-yl)carbamate] | – | – | EC50 [4]: 2.3 µM
21 | COC(=O)NC1CCN(C)c2c(C(=O)Nc3ccc(F)c(Cl)c3)cccc21 (single isomer, unassigned) [Compound 178, Methyl (8-((3-chloro-4-fluorophenyl)carbamoyl)-1-methyl-1,2,3,4-tetrahydroquinolin-4-yl)carbamate] | – | – | EC50 [2]: 13 µM
22 | COC(=O)NC1CCN(C)c2c(C(=O)Nc3ccc(F)c(Cl)c3)cccc21 (single isomer, unassigned) [Compound 179, Methyl (8-((3-chloro-4-fluorophenyl)carbamoyl)-1-methyl-1,2,3,4-tetrahydroquinolin-4-yl)carbamate] | – | – | EC50 [2]: 0.94 µM
23 | CN1CCC(NC(=O)OCc2ccccn2)c2cccc(C(=O)Nc3ccc(F)c(F)c3)c21 (single isomer, unassigned) [Compound 180, Pyridin-2-ylmethyl (8-((3,4-difluorophenyl)carbamoyl)-1-methyl-1,2,3,4-tetrahydroquinolin-4-yl)carbamate] | 15 | – | –
24 | CN1CCC(NC(=O)OCc2ccccn2)c2cccc(C(=O)Nc3ccc(F)c(F)c3)c21 (single isomer, unassigned) [Compound 181, Pyridin-2-ylmethyl (8-((3,4-difluorophenyl)carbamoyl)-1-methyl-1,2,3,4-tetrahydroquinolin-4-yl)carbamate] | 2.5 | – | –
25 | CN1CCC(NC(=O)OCc2ccccn2)c2cccc(C(=O)Nc3ccc(F)c(Cl)c3)c21 (single isomer, unassigned) [Compound 182, Pyridin-2-ylmethyl (8-((3-chloro-4-fluorophenyl)carbamoyl)-1-methyl-1,2,3,4-tetrahydroquinolin-4-yl)carbamate] | 12 | – | –
26 | CN1CCC(NC(=O)OCc2ccccn2)c2cccc(C(=O)Nc3ccc(F)c(Cl)c3)c21 (single isomer, unassigned) [Compound 183, Pyridin-2-ylmethyl (8-((3-chloro-4-fluorophenyl)carbamoyl)-1-methyl-1,2,3,4-tetrahydroquinolin-4-yl)carbamate] | 0.72 | – | –
27 | CC(C)NS(=O)(=O)N[C@H]1CCOc2c(C(=O)Nc3ccc(F)c(F)c3)cccc21 (stereo in doubt) [Compound 15] | – | 9.7 | –
28 | O=C(Nc1cccc(Cl)c1)c1cccc2c1OCCC2 [Compound 1, N-(3-chlorophenyl)chromane-8-carboxamide] | – | 23 | –
29 | O=C1CCOc2c1cccc2C(=O)Nc1ccc(F)c(F)c1 [Compound 2, N-(3,4-difluorophenyl)-4-oxochromane-8-carboxamide] | – | 2.3 | –
30 | O=C(Nc1ccc(F)c(F)c1)c1cccc2c1OCCC2O (stereo not drawn) [Compound 3, N-(3,4-difluorophenyl)-4-hydroxychromane-8-carboxamide] | – | 3.4 | –
31 | O=C(Nc1ccc(F)c(F)c1)c1cccc2c1OCC[C@H]2O [Compound 4, (R)-N-(3,4-difluorophenyl)-4-hydroxychromane-8-carboxamide] | – | 2.2 | –
32 | O=C(Nc1ccc(F)c(F)c1)c1cccc2c1OCC[C@@H]2O [Compound 5, (S)-N-(3,4-difluorophenyl)-4-hydroxychromane-8-carboxamide] | – | 3.9 | –
33 | COC(=O)N[C@H]1CCOc2c(C(=O)Nc3ccc(F)c(F)c3)cccc21 [Compound 8, methyl (S)-(8-((3,4-difluorophenyl)carbamoyl)chroman-4-yl)carbamate] | – | – | EC50 [4]: 2.3 µM
34 | CCC(=O)N[C@H]1CCOc2c(C(=O)Nc3ccc(F)c(F)c3)cccc21 [Compound 10, N-(3,4-Difluorophenyl)-4-propionamidochromane-8-carboxamide] | – | 5.8 | –
35 | COC(=O)N[C@@H]1CCOc2c(C(=O)Nc3ccc(F)c(F)c3)cccc21 [Compound 11, methyl (R)-(8-((3,4-difluorophenyl)carbamoyl)chroman-4-yl)carbamate] | – | – | EC50 [4]: 21 µM
36 | O=C(N[C@H]1CCOc2c(C(=O)Nc3ccc(F)c(F)c3)cccc21)c1cncs1 [Compound 12, N-(8-((3,4-difluorophenyl)carbamoyl)chroman-4-yl)thiazole-5-carboxamide] | – | 8.3 | –
